Source: patent US8372847B2, “Pyrazinone modulator of corticotropin-releasing factor receptor activity” (Bristol-Myers Squibb Company, priority 2008, dated 2013)

Key:
Male Sprague-Dawley rats [1] = assay: Situational anxiety behavioral model in rats (latency to exit dark cylinder into open field); format: in vivo, rat; conditions: for lowest effective dose (decrease of exit latency): PO, 60 minutes before testing
Description: Situational Anxiety Behavioral Studies in Rats. (S)-4-(1-Cyclopropyl-2-methoxyethyl)-6-(6-(difluoromethoxy)-2,5-dimethylpyridin-3-ylamino)-5-oxo-4,5-dihydropyrazine-2-carbonitrile has been evaluated in a situational anxiety model to evaluate its anxiolytic potential. In this model, rats are placed in a small, darkened chamber located in an unfamiliar open field. Vehicle-treated rats spend most of the time within the chamber, consistent with a heightened state of anxiety [Takahashi L. K. et al, Behav. Neurosci. 103: 648-654, (1989)]. This model is sensitive to anxiolytics, including benzodiazepines such as chlordiazepoxide [Yang X-M. et al, J. Pharmacol. Exp. Ther. 255: 1064-1070, (1990)]. In addition, previous CRF1 antagonists, such as DMP696 and DMP904 [McElroy J. F. et al., Psychopharmacology 165: 86-92, (2002); Lelas S. et al., J. Pharmacol. Exp. Ther. 309: 293-302, (2004)] were effective this model. The effects of (S)-4-(1-cyclopropyl-2-methoxyethyl)-6-(6-(difluoromethoxy)-2,5-dimethylpyridin-3-ylamino)-5-oxo-4,5-dihydropyrazine-2-carbonitrile were compared with those of anxiolytic standards chlordiazepoxide (Librium®) and diazepam (Valium®) in this model. Male Sprague-Dawley rats weighing 180-300 g were purchased from Charles River Laboratories (Wilmington, Mass.). The rats were housed individually in suspended wire cages in colony rooms maintained at a constant temperature (21±2° C.) and humidity (50±10%). The rooms were illuminated 12 hours per day. The rats had ad libitum access to food and water throughout the studies. Behavioral studies were conducted between 0600 and 1300 h. Animals were maintained in accordance with the guidelines of the Animal Care and Use Committee of the Bristol-Myers Squibb Company, the “Guide for Care and Use of Laboratory Animals” (Institute of Animal Laboratory Resources, 1996), and the guidelines published in the National Institutes of Health Guide for the Care and Use of Laboratory Animals. Research protocols were approved by the Bristol-Myers Squibb Company Animal Care and Use Committee. All compounds were prepared in 0.25% methylcellulose and administered PO. Chlordiazepoxide, diazepam, and desipramine were purchased from Sigma Chemical Company. (S)-4-(1-Cyclopropyl-2-methoxyethyl)-6-(6-(difluoromethoxy)-2,5-dimethylpyridin-3-ylamino)-5-oxo-4,5-dihydropyrazine-2-carbonitrile was dosed in the volume of 2 ml/kg. All standards were dosed in the volume of 2 ml/kg. For all tests, data were analyzed by analysis of variance, followed by Dunnett's t-tests for individual comparisons. The significance value was set at 0.05. The data are presented in the text and figures as mean±standard error of the mean (SEM). Male Sprague-Dawley rats were habituated to handling and dosing the day before testing. On the day of testing, all compounds were administered PO by gavage 60 minutes before behavioral testing. To initiate testing, each animal was placed in a small galvanized steel cylinder (14 cm length, 10 cm diameter), which was placed lengthwise against one wall of an illuminated open field (106 cm length×92 cm width×50 cm height). The open field was illuminated by a 60-W incandescent bulb and illumination was titrated by a powerstat transformer to a 30-lux reading at the entrance to the cylinder. Behavior was assessed for 15 minutes by a trained observer unaware of treatment assignment. The latency of the animal to exit the cylinder, defined by the placement of all four paws into the open field, and explore the open field was recorded (in seconds). […] The Plexiglas chamber and the cylinder were cleaned with 1.0% glacial acetic acid between animals to prevent olfactory cues from influencing the behavior of subsequently tested animals. Following behavioral testing, animals were sacrificed and plasma samples and brains were taken for analysis of plasma exposure and central receptor occupancy.

Male Sprague-Dawley rats [2] = conditions: previous CRF1 antagonists, literature (McElroy 2002; Lelas 2004); cited from earlier work
[3] = 3.0 mg/kg PO, benzodiazepine standard studies
[4] = 10 mg/kg PO, benzodiazepine standard studies

For `CN1C(=O)CN=C(c2ccccc2)c2cc(Cl)ccc21` [diazepam], the “decrease in exit latency relative to vehicle-treated controls” value (Male Sprague-Dawley rats [1]; 1.0 mg/kg PO, benzodiazepine standard study) was 62%, the “decrease in exit latency relative to vehicle-treated controls” value (Male Sprague-Dawley rats [1]; [3]) was 69% and the “decrease in exit latency relative to vehicle-treated controls” value (Male Sprague-Dawley rats [1]; [4]) was 91%. For the same compound, the “lowest effective dose (decrease of exit latency)” value (Male Sprague-Dawley rats [1]) was 1.0 mg/kg.
For `CCC(CC)Nc1cc(C)nc2c(-c3ccc(OC)cc3C)c(C)nn12` [DMP904], the “effectiveness in the situational anxiety model” value (Male Sprague-Dawley rats [2]) is given as “effective”.
With `CNC1=Nc2ccc(Cl)cc2C(c2ccccc2)=[N+]([O-])C1` [chlordiazepoxide] the “decrease in exit latency relative to vehicle-treated controls” value (Male Sprague-Dawley rats [1]; [3]) was 58%, the “decrease in exit latency relative to vehicle-treated controls” value (Male Sprague-Dawley rats [1]; [4]) was 97% and the “decrease in exit latency relative to vehicle-treated controls” value (Male Sprague-Dawley rats [1]; 30 mg/kg PO, benzodiazepine standard study) was 72%. The “decrease in exit latency relative to vehicle-treated controls” value (Male Sprague-Dawley rats [1]; 100 mg/kg PO, benzodiazepine standard study) was 54% and the “lowest effective dose (decrease of exit latency)” value (Male Sprague-Dawley rats [1]) was 3.0 mg/kg.
